{"source": "PubChem BioAssay AID1259321", "about": "(Sanford-Burnham Center for Chemical Genomics, 2017)", "note": "The source made the active and inactive calls.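 The calls were made as follows: active = half-maximal concentration for changing protein binding to DNA, from the fitted dose curve, below 10 micromolar; inactive = the rest.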"}
{"molecular_target": "Nuclear receptor subfamily 1 group D member 1 (Homo sapiens) (UniProt P20393)", "sequence (P20393 whole entry, looked up)": "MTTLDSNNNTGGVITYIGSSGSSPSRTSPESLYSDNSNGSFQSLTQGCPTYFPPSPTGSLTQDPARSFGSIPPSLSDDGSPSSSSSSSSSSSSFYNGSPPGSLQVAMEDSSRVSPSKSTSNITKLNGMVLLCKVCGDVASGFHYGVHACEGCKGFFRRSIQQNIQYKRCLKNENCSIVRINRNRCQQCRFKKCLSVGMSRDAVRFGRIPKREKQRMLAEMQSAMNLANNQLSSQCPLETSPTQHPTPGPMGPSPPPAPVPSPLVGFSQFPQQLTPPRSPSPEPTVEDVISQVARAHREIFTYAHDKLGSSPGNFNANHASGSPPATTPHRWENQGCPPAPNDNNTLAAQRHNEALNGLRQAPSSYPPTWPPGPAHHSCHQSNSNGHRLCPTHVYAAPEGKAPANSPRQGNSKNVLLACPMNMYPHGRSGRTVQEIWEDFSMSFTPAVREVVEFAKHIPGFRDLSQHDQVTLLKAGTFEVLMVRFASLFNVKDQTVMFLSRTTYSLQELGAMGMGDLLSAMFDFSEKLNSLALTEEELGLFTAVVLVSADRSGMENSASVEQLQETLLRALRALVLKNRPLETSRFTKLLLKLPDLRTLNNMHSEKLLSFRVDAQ", "assay": "Rev-erbα–DNA interaction modulators – biochemical, FITC-DNA, fluorescence polarization, dose response (AID 1259321)", "settings": "Rev-erb alpha-FITC-DNA binding"}
{"smiles": "CCOc1ccc(-n2c([S-])c(C(=O)Nc3ccc(S(=O)(=O)N4CCOCC4)cc3)[n+]3cc(C(N)=O)ccc23)cc1", "IC50": "inactive"}
{"smiles": "O=[N+]([O-])c1ccc(N2CCCCCC2)c2nonc12", "IC50": "> 40 µM (inactive)"}
{"smiles": "COC(=O)Cn1c(=NC(=O)CCS(=O)(=O)c2ccccc2)sc2c(OC)ccc(OC)c21", "IC50": "3.16 µM"}
{"smiles": "Cc1nn(-c2ccc(Cl)cc2)c2sc(C(=O)c3c(N)n(C)c(=O)n(C)c3=O)cc12", "IC50": "8.34 µM"}
{"smiles": "CCN(CC)c1ccc2cc(C(=O)NCc3ccc(F)cc3)c(=N)oc2c1", "IC50": "inactive"}
{"smiles": "Cc1ccc(S(=O)(=O)c2c[nH]c3ccc(Cl)cc3c2=O)cc1", "IC50": "> 40 µM (inactive)"}
{"smiles": "Cc1cc(C)c2cc(C#N)c(SCC(=O)NCC3CCCO3)nc2c1", "note": "(centres undefined)", "IC50": "3.95 µM"}
{"smiles": "CC1CCN(Cc2cc(=O)oc3ccc(C(C)C)cc23)CC1", "IC50": "9.88 µM"}
{"smiles": "COc1ccc2nc(SCC(=O)NC3CCCC3)c(C)cc2c1", "IC50": "4.48 µM"}
{"smiles": "Cc1ccc(C2(C(F)(F)F)NC(=O)N3C(=C2C#N)Nc2ccccc23)cc1", "note": "(centres undefined)", "IC50": "2.68 µM"}
{"smiles": "CN(c1ccc(O)cc1)c1ccc([N+](=O)[O-])c2nonc12", "IC50": "6 µM"}
{"smiles": "Cc1c(C(=O)Nc2ccncc2)sc2nc(-c3ccc(F)cc3)cn12", "IC50": "3.76 µM"}
{"smiles": "COc1ccc(-c2nc3c(c(=O)c4ccccc4n3C)c(=O)n2Cc2ccccc2)cc1", "IC50": "9.23 µM"}
{"smiles": "COc1cc(-c2nn3c(COc4ccccc4)nnc3s2)cc(OC)c1OC", "IC50": "2.99 µM"}
{"smiles": "O=C(CSc1ncnc2c1sc1ccccc12)Nc1ccc(Br)cc1", "IC50": "2.97 µM"}
{"smiles": "CCOc1ccc(S(=O)(=O)Nc2nc3ccccc3nc2-n2ccc(=NC(=O)c3ccccc3C)cc2)cc1", "IC50": "> 40 µM (inactive)"}
{"smiles": "Cc1c(-c2ccc(F)cc2)nc(N)c(C#N)c1-c1cccs1", "IC50": "1.77 µM"}
{"smiles": "CCc1nnc(NC(=O)CSc2nc3cc4c(cc3cc2C)OCCO4)s1", "IC50": "7.62 µM"}
{"smiles": "Cc1cccc2cc(C#N)c(SCC(=O)N3CC(=O)Nc4ccccc43)nc12", "IC50": "inactive"}
{"smiles": "Cc1ccc2c(n1)sc1c(-c3ccccc3)c(C#N)c(N)nc12", "IC50": "inactive"}
{"smiles": "COc1cccc(-n2c([S-])c(C(=O)Nc3ccc(S(=O)(=O)N4CCOCC4)cc3)[n+]3cc(C(N)=O)ccc23)c1", "IC50": "> 40 µM (inactive)"}
{"smiles": "C=CCOc1ccc(/C(O)=C2\\C(=O)C(=O)N(CCN(C)C)C2c2cccs2)cc1", "note": "(centres undefined)", "IC50": "7.38 µM"}
{"smiles": "COc1ccc(/C=C2\\SC(=O)N(CCC(=O)Nc3ccccc3)C2=O)cc1OC", "IC50": "inactive"}
{"smiles": "CN(C)c1ccc(/C=C2\\NC(=S)N(Cc3ccccc3)C2=O)cc1", "IC50": "> 40 µM (inactive)"}
{"smiles": "Cc1ccc2cc(C#N)c(SCC(=O)N3CCCc4ccccc43)nc2c1", "IC50": "6.5 µM"}
{"smiles": "COc1ccc(-c2nc(-c3cccs3)c(-c3cccs3)[nH]2)cc1OC", "IC50": "5.77 µM"}
{"smiles": "C[n+]1ccc(/C=C/c2c[nH]c3ccc(F)cc23)cc1", "IC50": "> 40 µM (inactive)"}
{"smiles": "COc1cc2c3nnc(-c4ccc(F)cc4)c-3cn(Cc3ccccc3)c2cc1OC", "IC50": "inactive"}
{"smiles": "COc1ccc(C(=O)NNC(=O)C(Cc2ccc(O)cc2)NC(=O)c2ccccc2NC(=O)c2ccc(OC)cc2)cc1", "note": "(centres undefined)", "IC50": "inactive"}
{"smiles": "c1ccc2nc(-c3ccc(N4CCOCC4)cc3)ccc2c1", "IC50": "> 40 µM (inactive)"}
{"smiles": "COc1ccc(-c2cc(C(=O)Nc3cccnc3Cl)no2)cc1OC", "IC50": "1.92 µM"}
{"smiles": "Cc1n[nH]c(C)c1N1C(=O)c2cccc3c(N4CCCCCC4)ccc(c23)C1=O", "IC50": "3.61 µM"}
{"smiles": "Cc1cc(=O)oc2cc(OCC3CC(c4ccc(Cl)cc4)=NO3)ccc12", "note": "(centres undefined)", "IC50": "8.95 µM"}
{"smiles": "Cc1c(Cl)cc(C(C)C)c(O)c1CN1CCOCC1", "IC50": "> 40 µM (inactive)"}
{"smiles": "CC[n+]1c(/C=C/c2c[nH]c3ccccc23)ccc2cc(C)ccc21", "IC50": "inactive"}
{"smiles": "COc1ccccc1NC(=O)c1sc(NC(=O)c2ccco2)c(C#N)c1C", "IC50": "3.15 µM"}
{"smiles": "Nc1ccc2nc3c(=O)n(C4CCCCC4)c(=O)[nH]c3nc2c1", "IC50": "6.28 µM"}
{"smiles": "COc1ccc2cc(C)c(SCC(=O)Nc3cc(C)on3)nc2c1", "IC50": "> 40 µM (inactive)"}
{"smiles": "COC(=O)c1ccc(NC(=O)c2cc(Cl)ccc2OC)cc1", "IC50": "inactive"}
{"smiles": "Cc1cc(C)c(NC(=O)COc2ccccc2C(=O)Nc2ccc3c(c2)oc2ccccc23)c(C)c1", "IC50": "> 40 µM (inactive)"}
{"smiles": "CCC(=O)N=c1sc2c(OC)ccc(OC)c2n1C", "IC50": "2.98 µM"}
{"smiles": "O=C(NCc1cccc(F)c1)c1cccc2c1C(=O)c1ccc(N3CCOCC3)cc1S2(=O)=O", "IC50": "3.69 µM"}
{"smiles": "COc1ccc(-c2c(C#N)c(N)nc(Sc3ccc(Cl)cc3)c2C#N)cc1", "IC50": "3.66 µM"}
{"smiles": "CC(C)c1ccc(-c2c(C#N)c(N)nc(SCC(=O)N3CCCCC3)c2C#N)cc1", "IC50": "3.15 µM"}
{"smiles": "Cc1cc(NC(=O)CSc2nc3c(C)ccc(C)c3cc2C#N)no1", "IC50": "3.19 µM"}
{"smiles": "COC(=O)Cn1c(=NC(=O)c2ccc(OC)c(OC)c2)sc2cc(OC)ccc21", "IC50": "> 40 µM (inactive)"}
{"smiles": "O=S(=O)([N-]c1nc2ccccc2nc1-n1cc[n+](Cc2ccccc2)c1)c1ccc(Br)cc1", "IC50": "1.06 µM"}
{"smiles": "O=C(COc1ccccc1)Nc1nc2cc3c(cc2s1)OCCO3", "IC50": "4.3 µM"}
{"smiles": "c1ccc(-c2nc(SCc3nc4ccccc4[nH]3)c3oc4ccccc4c3n2)cc1", "IC50": "2.4 µM"}
{"smiles": "COc1ccc(NC(=O)c2sc3nc(N4CCCC4)c4c(c3c2N)CC(C)(C)OC4)c(OC)c1", "IC50": "> 40 µM (inactive)"}
{"smiles": "O=C(Nc1nnc(SCc2ccccc2)s1)c1cc2c(s1)CCCC2", "IC50": "2.33 µM"}
{"smiles": "Cc1cc(C)c(N=C2SCC(=O)N2Cc2ccco2)c(C)c1", "IC50": "7.22 µM"}
{"smiles": "O=C(CCc1c[nH]c2ccccc12)NCCc1ccc2c(c1)OCCO2", "IC50": "1.08 µM"}
{"smiles": "Cc1cc(C)c2cc(C#N)c(SCC(=O)Nc3ccc4c(c3)OCO4)nc2c1", "IC50": "7.14 µM"}
{"smiles": "CCOC(=O)C1CCCN(c2ccc([N+](=O)[O-])c3nonc23)C1", "note": "(centres undefined)", "IC50": "> 40 µM (inactive)"}
{"smiles": "O=C(Nc1nc2ccsc2c(=O)s1)c1ccc(Cl)cc1", "IC50": "7.69 µM"}
{"smiles": "CN1C(=O)c2cc(NS(=O)(=O)c3ccc(F)cc3)ccc2OC[C@H]2O[C@@H](CC(=O)NCC(F)(F)F)CC[C@@H]21", "IC50": "1.62 µM"}
{"smiles": "CCN1C(=O)C(=CC=CN(C)c2ccccc2)SC1=S", "IC50": "inactive"}
{"smiles": "CCc1nc(SCC(=O)Nc2ccc3c(c2)OCCO3)c2oc3ccccc3c2n1", "IC50": "1.3 µM"}
{"smiles": "O=C(CCS(=O)(=O)c1ccccc1)Nc1ccccc1-c1nc2ccccc2s1", "IC50": "0.518 µM"}
{"smiles": "N#Cc1cnc2cc(-c3ccccc3)nn2c1N", "IC50": "3.52 µM"}
{"smiles": "CN1C(=O)C(=Cc2ccc(N3CCCCCC3)o2)C(=O)N(C)C1=S", "IC50": "inactive"}
{"smiles": "CCC(=O)c1ccc(N2CCN(S(=O)(=O)c3ccccc3)CC2)c(F)c1", "IC50": "2.96 µM"}
{"smiles": "CC(=O)c1ccc(S(=O)(=O)N2CCN(c3nc4c(C)c(C)ccc4cc3C#N)CC2)cc1", "IC50": "4.57 µM"}
{"smiles": "N#Cc1c(N)nc(SCC(=O)C23CC4CC(CC(C4)C2)C3)c(C#N)c1-c1ccc(Cl)cc1", "IC50": "> 40 µM (inactive)"}
{"smiles": "COc1cc(/C=C2\\SC(=O)N(CCNC(=O)c3sc4cc(F)ccc4c3Cl)C2=O)cc(OC)c1OC", "IC50": "4.87 µM"}
{"smiles": "COc1ccc(C(=O)NCCNc2nc3cc(C)cc(C)c3cc2C#N)nc1", "IC50": "inactive"}
{"smiles": "CCC(C)NC(=O)Cc1c(OC)ccc2cc(Br)ccc12", "note": "(centres undefined)", "IC50": "8.21 µM"}
{"smiles": "NS(=O)(=O)c1ccc(CNC(=O)c2cc(-c3cccnc3)nc3ccc(Br)cc23)cc1", "IC50": "0.496 µM"}
{"smiles": "O=C(OCC(=O)c1c[nH]c2ccccc12)c1cc(Br)ccc1O", "IC50": "5.27 µM"}
{"smiles": "O=C(O)CN1C(=O)/C(=C\\c2cn(CC(=O)N3CCOCC3)c3ccccc23)SC1=S", "IC50": "9.92 µM"}
{"smiles": "COCCCn1c(C(=O)NCCC2=CCCCC2)cc2c(=O)n3cccc(C)c3nc21", "IC50": "7.78 µM"}
{"smiles": "COc1ccc2cc(C#N)c(Nc3cccc(F)c3)nc2c1", "IC50": "7.69 µM"}
{"smiles": "Cc1cc(OC(C)C(=O)NCc2ccccn2)c2c(C)c(Cc3ccccc3)c(=O)oc2c1", "note": "(centres undefined)", "IC50": "2.52 µM"}
